According to patent publication US8288375B2, “Fungicidal bicyclic pyrazoles” (E.I. du Pont de Nemours and Company, priority 2007, dated 2012):

What was measured:
Botrytis cinerea = experiment: Test H: tomato Botrytis, test suspension sprayed on tomato seedlings, disease rating; format: in vivo; conditions: 200 ppm test suspension; for pest or weed control at 200 ppm: Botrytis cinerea, 120 h
Septoria nodorum = experiment: Test D: wheat glume blotch, test suspension sprayed on wheat seedlings, disease rating; format: in vivo; conditions: 200 ppm test suspension; for pest or weed control at 200 ppm: Parastagonospora nodorum, 216 h
Alternaria solani = experiment: Test G: tomato early blight, test suspension sprayed on seedlings, disease rating; format: in vivo; conditions: Alternaria solani, 168 h; for pest or weed control at 40 ppm: 40 ppm test suspension (*);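 on all read-outs here: 200 ppm unless marked * meaning 40 ppm or ** meaning 10 ppm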
[1] = tested on: Colletotrichum orbiculare; experiment: Test F: cucumber Colletotrichum anthracnose, test suspension sprayed on cucumber seedlings, disease rating; format: in vivo; conditions: 200 ppm test suspension; for pest or weed control at 200 ppm: Colletotrichum orbiculare, 144 h
Phytophthora infestans = experiment: whole plant or invertebrate; format: in vivo; conditions: for Test J disease control rating: 200 ppm test suspension
[2] = tested on: Erysiphe graminis f. sp. tritici; experiment: Test A: wheat powdery mildew, test suspension sprayed on wheat seedlings, disease rating; format: in vivo; conditions: 200 ppm test suspension, 100 = 100% disease control, 0 = no control; for pest or weed control at 200 ppm: Blumeria graminis, 192 h
Pythium aphanidermatum = experiment: Test L: bluegrass pythium blight, test suspension sprayed on bluegrass seedlings, disease rating; format: in vivo; conditions: for pest or weed control at 200 ppm / Test L disease control rating: 200 ppm test suspension;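 on all read-outs here: 200 ppm unless marked * meaning 40 ppm or ** meaning 10 ppm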
[3] = tested on: Puccinia recondite f sp. tritici; experiment: Test B: wheat leaf rust, test suspension sprayed on wheat seedlings, disease rating; format: in vivo; conditions: for pest or weed control at 200 ppm / Test B disease control rating: 200 ppm test suspension;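 on all read-outs here: 200 ppm unless marked * meaning 40 ppm or ** meaning 10 ppm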
Septoria tritici = experiment: Test E: wheat leaf blotch, test suspension sprayed on wheat seedlings, disease rating; format: in vivo; conditions: for pest or weed control at 200 ppm / Test E disease control rating: 200 ppm test suspension;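 on all read-outs here: 200 ppm unless marked * meaning 40 ppm or ** meaning 10 ppm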
Fusarium graminearum = experiment: whole plant or invertebrate; format: in vivo
Rhizoctonia oryzae = experiment: Test I: turf brown patch, test suspension sprayed on creeping bent grass seedlings, disease rating; format: in vivo; conditions: 200 ppm test suspension; for pest or weed control at 200 ppm: Waitea circinata, in Agrostis stolonifera, 120 h
Plasmopara viticola = experiment: Test K: grape downy mildew, grape seedlings inoculated and then sprayed, disease rating; format: in vivo; conditions: 200 ppm test suspension
Sclerotinia sclerotiorum = experiment: Test M: cucumber white mold, test suspension sprayed on cucumber seedlings, disease rating; format: in vivo; conditions: 200 ppm test suspension
Text: General protocol for preparing test suspensions for Tests A-M: The test compounds were first dissolved in acetone in an amount equal to 3% of the final volume and then suspended at the desired concentration (in ppm) in acetone and purified water (50/50 mix) containing 250 ppm of the surfactant Trem® 014 (polyhydric alcohol esters). The resulting test suspensions were then used in Tests A-M. Spraying a 200 ppm test suspension to the point of run-off on the test plants was the equivalent of an application rate of 500 g/ha.
The test suspension was sprayed to the point of run-off on cucumber seedlings. The following day the seedlings were inoculated with a spore suspension of Sclerotinia sclerotiorum (the causal agent of cucumber white mold) and incubated in saturated atmosphere at 24° C. for 72 h, and then moved to a growth chamber at 24° C. for 3 additional days, after which time disease ratings were made.
Results for Tests A-M are given in Table A. In the table, a rating of 100 indicates 100% disease control and a rating of 0 indicates no disease control (relative to the controls). A dash (-) indicates no test results. All results are for 200 ppm test suspension except where followed by “*” which indicates 40 ppm or by “**” which indicates 10 ppm.

[4] = Phytophthora infestans, in Solanum lycopersicum, 120 h, read-out: Test J disease control rating
[5] = Fusarium graminearum, in Triticum aestivum, 192 h, read-out: Test C disease control rating

SMILES	pest or weed control at 200 ppm (Botrytis cinerea) [%]	pest or weed control at 200 ppm (Septoria nodorum) [%]	pest or weed control at 40 ppm (Alternaria solani) [%]	melting point [°C]	pest or weed control at 200 ppm [1] [%]	pest or weed control at 200 ppm (Phytophthora infestans; [4]) [%]	pest or weed control at 200 ppm [2] [%]	pest or weed control at 200 ppm (Pythium aphanidermatum; Pythium aphanidermatum, 120 h) [%]	pest or weed control at 200 ppm ([3]; Puccinia, 192 h) [%]	pest or weed control at 200 ppm (Septoria tritici; Zymoseptoria tritici, 504 h) [%]	pest or weed control at 200 ppm (Fusarium graminearum; [5]) [%]	pest or weed control at 200 ppm (Rhizoctonia oryzae) [%]	Test K disease control rating (Plasmopara viticola) [%]	other results
CC(C)Nc1nccc(-c2c(-c3ccc(F)cc3)nn3c2CCCC3)n1 [Compound 8, 4-[2-(4-fluorophenyl)-4,5,6,7-tetrahydropyrazolo[1,5-a]pyridin-3-yl]-N-(1-methylethyl)-2-pyrimidinamine]	97	100	99	178 to 180	99	100	81	100	99	100	100	62		
Fc1ccc(-c2nn3c(c2-c2ccnc(NC4CC4)n2)CCCC3)cc1 [Compound 12, N-cyclopropyl-4-[2-(4-fluorophenyl)-4,5,6,7-tetrahydropyrazolo[1,5-a]pyridin-3-yl]-2-pyrimidinamine]	98	99		164 to 165	94	100	97	100	99	100	100	64	0	
CC(C)Nc1nccc(-c2c(-c3ccc(F)cc3)nn3c2COCC3)n1 [Compound 107, 4-[2-(4-fluorophenyl)-6,7-dihydro-4H-pyrazolo[5,1-c][1,4]oxazin-3-yl]-N-(1-methylethyl)-2-pyrimidinamine]	90	99	99	144 to 146	99	100	92	100	99	100	99	80		
Fc1ccc(-c2nn3c(c2-c2ccnc(NC4CC4)n2)CCCN3)cc1 [Compound 131, N-cyclopropyl-4-[2-(4-fluorophenyl)-4,5,6,7-tetrahydropyrazolo[1,5-b]pyridazin-3-yl]-2-pyrimidinamine]	9	87		184 to 187	58	97	96	100	100		100	57	0	pest or weed control at 200 ppm (Alternaria solani; 200 ppm test suspension): 81%
CC(CO)Nc1nccc(-c2c(-c3ccc(F)cc3)nn3c2CCCN3)n1 (centres unmarked) [Compound 132, 2-[[4-[2-(4-fluorophenyl)-4,5,6,7-tetrahydropyrazolo[1,5-b]pyridazin-3-yl]-2-pyrimidinyl]amino]-1-propanol]	0	0	0	165 to 167	0		66					0		pest or weed control at 40 ppm (Phytophthora infestans; [4]): 65%; pest or weed control at 40 ppm (Pythium aphanidermatum; Pythium aphanidermatum, 120 h, 40 ppm test suspension (*)): 100%; pest or weed control at 40 ppm ([3]; Puccinia, 192 h, 40 ppm test suspension (*)): 88%; pest or weed control at 40 ppm (Septoria tritici; Zymoseptoria tritici, 504 h, 40 ppm test suspension (*)): 0%; pest or weed control at 40 ppm (Fusarium graminearum; [5]): 0%
COCC(C)Nc1nccc(-c2c(-c3ccc(F)cc3)nn3c2CCCC3)n1 (centres unmarked) [compound 1]													0	Test H disease control rating (Botrytis cinerea): 91%; Test D disease control rating (Septoria nodorum): 98%; Test F disease control rating [1]: 96%; Test J disease control rating (Phytophthora infestans): 100%; Test A disease control rating [2]: 94%; Test L disease control rating (Pythium aphanidermatum): 100%; Test B disease control rating [3]: 100%; Test E disease control rating (Septoria tritici): 98%; Test M disease control rating (Sclerotinia sclerotiorum): 99%; Test C disease control rating (Fusarium graminearum; 200 ppm test suspension): 100%; Test I disease control rating (Rhizoctonia oryzae): 41%
CCC(C)Nc1nccc(-c2c(-c3ccc(F)cc3)nn3c2CCCC3)n1 (centres unmarked) [compound 2]													0	Test H disease control rating (Botrytis cinerea): 92%; Test D disease control rating (Septoria nodorum): 98%; Test F disease control rating [1]: 85%; Test J disease control rating (Phytophthora infestans): 47%; Test A disease control rating [2]: 0%; Test L disease control rating (Pythium aphanidermatum): 100%; Test B disease control rating [3]: 98%; Test E disease control rating (Septoria tritici): 97%; Test M disease control rating (Sclerotinia sclerotiorum): 0%; Test I disease control rating (Rhizoctonia oryzae): 31%
